Experimental data reported in PMC9636434, “Discovery of small molecule agonists of the Relaxin Family Peptide Receptor 2” (Communications Biology, 2022).
“And” between values parts separate entries of the source, which are not always exact repeats. Equal values may be shown once. “Also recorded” adds a separate entry of the source.

How the values were obtained:
RXFP2 = RXFP2 (Homo sapiens, UniProt Q8WXD0); experiment: Confirmatory CRE-luciferase reporter assay in HEK-CRE-Luc-RXFP2 cells; assay type: cell-based; set-up: FLAG (N); expressed in transfected cells; conditions: for % Eff (CRE-luciferase): experiments (1)-(3)
Protocol: A quantitative high-throughput screening (HTS) of more than 80 K compounds of the NCATS/NIH diversity collection was performed at four concentrations in HEK293T cells stably expressing human RXFP2 to identify candidate agonists. A homogenous time resolved fluorescence (HTRF) assay was used to directly detect compound-induced cAMP accumulation, with forskolin or human recombinant INSL3 serving as positive controls. […] Selected compounds with reasonable activity in dose response were also tested in a confirmatory orthogonal screening using a cAMP response element (CRE) driven luciferase reporter assay in HEK-CRE-Luc-RXFP2 cells, and in a counter-screen with cells transfected with human relaxin/insulin-like family peptide receptor 1 (RXFP1). Finally, we performed an extensive structure activity relationship campaign (SAR) to increase both the agonist efficacy and potency of the lead series. […] A confirmatory CRE-luciferase cAMP screen was used to eliminate any potential false positives due to assay detection artifacts (Supplementary Fig. 1a).
(§1) HEK293T-CRE-Luc cells express luciferase under the control of the cAMP response element (CRE), which allows for indirect measurement of intracellular cAMP accumulation. HEK293T-CRE-Luc cells were stably transfected with human RXFP2 (HEK-CRE-Luc-RXFP2) or transiently transfected as above with mouse Rxfp2 (HEK-CRE-Luc-Rxfp2). HEK-CRE-Luc-RXFP2 and HEK-CRE-Luc-Rxfp2 cells were seeded at 15,000 and 30,000 cells per well, respectively, in 96-well plates using serum-free DMEM medium and incubated overnight at 37 °C, 5% CO2. After 18 h, cells were treated with a titration of compound, a titration of INSL3, 5 μM forskolin or DMSO vehicle. After treatment, cells were incubated for 3 h at 37 °C, 5% CO2. Plates were then allowed to equilibrate for 30 min at room temperature and an equal volume of substrate (Amplite Luciferase Reporter Gene Assay Kit, AAT Bioquest, Sunnyvale, CA) was added to each well. Plates were incubated for 40 min at room temperature protected from light and the luciferase output was read on a CLARIOstar plate reader.
Supplementary Fig. 1: Compounds activate both human and mouse RXFP2 receptors. a Confirmatory CRE-Luciferase screening of RXFP2 agonists in st a b ly transfected HEK-CRE-Luc-RXFP2 cells. b Activation of mouse RXFP2 receptor by the compounds in transiently transfected HEK293T-CRE-Luc cells. Compound response was normalized to 100 nM INSL3 as 100% efficacy and DMSO vehicle as 0% efficacy.
Results are expressed as mean ± SEM of 3 independent experim ents.
(1 picture or pasted object on this page, not shown here)

mouse RXFP2 = molecular target: T1, mouse RXFP2 (Mus musculus, UniProt Q91ZZ5); experiment: CRE-luciferase reporter assay in HEK293T-CRE-Luc cells transiently transfected with mouse Rxfp2; assay type: cell-based
T1 construct: FLAG (N); expressed in transfected cells; host or cells: HEK293T-CRE-Luc (transient)
Source text: Therefore, we examined the capacity of the identified human RXFP2 agonists to activate murine RXFP2. […] The observed difference between CRE-luciferase reporter assays with human and mouse RXFP2 might be due to a lower expression of the receptor in transiently transfected mouse RXFP2 cells compared to the stably transfected human RXFP2 cell line.
as §1, with “Plates were then allowed to equilibrate for 30 min at room temperature and an equal volume of substrate (Amplite Luciferase Reporter Gene Assay Kit, AAT Bioquest, Sunnyvale, CA) was added to each well.” left out, “reader. […]” for “reader.”
Results are expressed as mean ± SEM of 3 independent experim ents. […]

Chain of RXFP2 (Q8WXD0 whole entry): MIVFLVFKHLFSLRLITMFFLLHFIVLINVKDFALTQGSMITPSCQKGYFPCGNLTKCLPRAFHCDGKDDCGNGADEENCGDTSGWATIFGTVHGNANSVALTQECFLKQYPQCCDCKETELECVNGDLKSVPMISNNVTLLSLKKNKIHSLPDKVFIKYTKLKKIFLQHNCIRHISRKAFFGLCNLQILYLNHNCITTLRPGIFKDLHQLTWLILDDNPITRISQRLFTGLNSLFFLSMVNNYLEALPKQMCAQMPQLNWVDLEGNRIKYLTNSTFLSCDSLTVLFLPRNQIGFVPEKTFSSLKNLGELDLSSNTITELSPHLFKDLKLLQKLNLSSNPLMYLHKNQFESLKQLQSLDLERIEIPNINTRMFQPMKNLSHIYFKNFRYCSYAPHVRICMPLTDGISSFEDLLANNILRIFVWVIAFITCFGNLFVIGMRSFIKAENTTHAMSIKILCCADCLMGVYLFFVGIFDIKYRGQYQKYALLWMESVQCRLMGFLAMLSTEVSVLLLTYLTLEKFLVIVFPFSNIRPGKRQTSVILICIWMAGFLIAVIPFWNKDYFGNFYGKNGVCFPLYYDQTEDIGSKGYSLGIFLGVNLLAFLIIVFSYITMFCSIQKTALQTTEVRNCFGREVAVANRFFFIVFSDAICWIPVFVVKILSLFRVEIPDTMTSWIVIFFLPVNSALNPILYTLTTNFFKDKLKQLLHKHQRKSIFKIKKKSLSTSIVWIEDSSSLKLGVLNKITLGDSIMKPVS
T1 sequence (Q91ZZ5 whole entry): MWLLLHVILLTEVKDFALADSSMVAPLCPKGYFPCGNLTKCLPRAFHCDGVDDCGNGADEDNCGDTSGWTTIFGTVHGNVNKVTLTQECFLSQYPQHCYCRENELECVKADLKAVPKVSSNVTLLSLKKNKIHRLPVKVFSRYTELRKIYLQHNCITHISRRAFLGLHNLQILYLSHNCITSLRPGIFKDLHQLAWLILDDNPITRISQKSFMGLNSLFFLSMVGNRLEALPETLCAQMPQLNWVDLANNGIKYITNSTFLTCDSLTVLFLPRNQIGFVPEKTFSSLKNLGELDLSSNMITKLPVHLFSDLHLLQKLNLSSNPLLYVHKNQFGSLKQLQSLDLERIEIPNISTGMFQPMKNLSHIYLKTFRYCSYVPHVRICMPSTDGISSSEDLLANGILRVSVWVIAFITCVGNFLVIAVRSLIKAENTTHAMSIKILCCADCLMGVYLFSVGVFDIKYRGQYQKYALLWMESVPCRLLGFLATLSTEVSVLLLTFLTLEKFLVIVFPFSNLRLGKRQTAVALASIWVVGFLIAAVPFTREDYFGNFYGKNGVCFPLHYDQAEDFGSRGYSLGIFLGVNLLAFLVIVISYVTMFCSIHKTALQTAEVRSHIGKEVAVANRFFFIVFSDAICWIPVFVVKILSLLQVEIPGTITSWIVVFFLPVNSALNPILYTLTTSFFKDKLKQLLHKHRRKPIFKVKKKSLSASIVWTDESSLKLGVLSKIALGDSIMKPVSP

O=C1Nc2ccc(-c3cc(C(F)(F)F)cc(C(F)(F)F)c3)cc2C(=O)N2CCN(C(=O)COc3ccc(OC(F)(F)F)cc3I)C[C@@H]12 [compound 6641]
agonism of human RXFP2 in CRE-luciferase reporter assay (RXFP2; HEK-CRE-Luc-RXFP2): full agonist
% Eff (CRE-luciferase) (RXFP2; Log [M] -4.60, 100 nM INSL3 = 100%, DMSO = 0%): 112.29% and 97.22% and 133.29%
% Eff (CRE-luciferase) (RXFP2; Log [M] -5.00): 116.16% and 119.1% and 157.5%
% Eff (CRE-luciferase) (RXFP2; Log [M] -5.78): 114.59% and 98.52% and 126.86%
% Eff (CRE-luciferase) (RXFP2; Log [M] -6.56): 113.18% and 86.94% and 103.38%
% Eff (CRE-luciferase) (RXFP2; Log [M] -7.33): 77.02% and 61.6% and 70.55%
% Eff (CRE-luciferase) (RXFP2; Log [M] -8.11): 44.24% and 30.05% and 30.02%
% Eff (CRE-luciferase) (RXFP2; Log [M] -8.89): 14.74% and 8.06% and 7.85%
% Eff (CRE-luciferase) (RXFP2; Log [M] -9.67): 6.98% and 1.71% and 0.6%
activation at 0.0251 µM (mouse RXFP2; mouse RXFP2, Log [M] -7.60, experiments (1)-(3), read-out: % Eff (CRE-luciferase)): 28.9%
agonism of mouse RXFP2 in CRE-luciferase reporter assay (mouse RXFP2; transiently transfected cells): activate the mouse RXFP2 receptor; also recorded: full agonist
